Assay results reported in PubChem BioAssay AID2060344 (Molecular Pharmacology Branch, DTP, NCI, 2025).
Several values for one entry are separate records, joined by “and”; a condition that tells them apart may be missing. Identical values can stand only once.

Tested on: SK-MEL-2 multi-cell spheroids, viability
Assay: Anticancer human tumor SK-MEL-2 cell line growth inhibition [TAK];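 note: spheroids exposed to drugs for seven days before readout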;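 for viability, T/C: percent of DMSO vehicle control luminescence so 100% = untreated viability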
Settings: for viability, T/C: stronger effect = lower value
Description: Combinatorial screen of targeted agents with TAK-243 and ipatasertib in multi-cell type tumor spheroids
A high-throughput screen of multi-cell type tumor spheroids was designed to identify active combinations of targeted small molecules and TAK-243 or ipatasertib. Complex spheroids include a stromal component modeled by human endothelial cells (HUVEC) and fibroblasts modeled by human mesenchymal stem cells (MSCs). The concentration ranges selected for each drug and investigational agent were based upon clinically achievable concentrations if the clinical Cmax of the agent was known.
Compounds. The drugs and investigational agents: TAK-243 (785004), ipatasertib (767898), everolimus (733504), selumetinib (741078), bortezomib (756655), trametinib (758246), ixazomib (758254), vemurafenib (761431), dabrafenib (764134), sapanisertib (764658), alpelisib (765974), and copanlisib (816437), were obtained from the National Cancer Institute (NCI) Developmental Therapeutics Program Chemical Repository. The FDA-approved anticancer drug set is available from the NCI Developmental Therapeutics Program. […] The stock solutions were prepared in dimethyl sulfoxide (DMSO, Sigma-Aldrich, St. Louis, MO, cat. D2650) at 800-fold the tested concentration and stored at -70 degrees C prior to their use. All drugs and investigational agents were tested over a range starting from a high concentration at or near the clinical Cmax and decreasing in half-log increments. If the clinical Cmax for an agent had not been determined, the highest concentration tested was 10 microM.
NCI60 Cell Culture. NCI60 cell lines were obtained from the NCI Developmental Therapeutics Program Tumor Repository. For each lot of cells, the Repository performed Applied Biosystems AmpFLSTR Identifiler testing with PCR amplification to confirm consistency with the published Identifier STR profile for each cell line. Cells were kept in continuous culture for no more than 20 passages. The optimal seeding densities for each of the cell lines at each time point assessed were determined prior to performing the concentration response studies. Briefly, the NCI60 human tumor lines were grown as monolayers in RPMI 1640 medium supplemented with 10% FBS and 2 mmol/L L-glutamine.
An additional 2 lines were from the NCI60 cell line panel including melanomas, MALME-3M and SK-MEL-2. Pooled donor human umbilical vein endothelial cells (HUVEC, Lonza, cat. CC-2519) and human mesenchymal stem cells (hMSC, Lonza, cat. PT-2501) were purchased from Lonza (Walkersville, MD).
PDMR cell lines were grown in complete medium (DC medium): Dulbecco's modified Eagle's medium (DMEM)/F12 supplemented with 5% fetal bovine serum (FBS), 2 mM L-glutamine, 100 U/mL penicillin and 100 µg/ml streptomycin, 0.4 µg/ml hydrocortisone, 10 ng/ml epidermal growth factor (EGF) recombinant human protein, 24 µg/mL adenine, and 0.1 mg/mL primocin. During culture from frozen stock vials, PDMR cells were cultured in the same medium containing 10 µM Y-27632 (see Table 3). The PDCs were cultured in complete DMEM/F12 media without 10 microM Y-27632 dihydrochloride for at least two passages prior to the screen. The pooled donor HUVEC and hMSC were cultured in endothelial cell growth medium 2 (PromoCell, Heidelberg, Germany, cat. C-22011) and mesenchymal stem cell growth medium 2 (PromoCell, cat. C-28009), respectively. For all experiments, HUVEC and hMSC were used at passages </=5.
For the pre-screen, cell seeding densities were determined from a titration spanning the range from 5,000 to 313 cells per well. The mct-spheroids including 60% malignant cells, 25% HUVEC and 15% MSC dispensed as a mixture into U-bottom Ultra-Low Attachment 384-well plates (Corning, NY)
High-throughput Drug Combination Screening.
Prior to their inoculation into 384-well plates, malignant cells, HUVEC, and hMSC were removed from T flasks using TrypLE express (Thermo Fisher Scientific, cat. 12605036) and harvested by centrifugation for 5 min at 233 x g. […]

COc1c(OCCCN2CCOCC2)ccc2c3n(c(=NC(=O)c4cnc(N)nc4)nc12)CCN3
viability, T/C (compound 0.00316 µM): 93.1% and 92.3% | viability, T/C (compound 0.01 µM): 71.8% and 74% | viability, T/C (compound 0.0316 µM): 60.8% and 56.7% | viability, T/C (compound 0.1 µM): 44.8% and 46.6% | viability, T/C (compound 0.316 µM): 31.1% and 30.9% | viability, T/C (compound 1 µM): 20.5% and 23.6% | IC50 (curve of compound): 63.9 nM and 61.4 nM

Cc1nc(NC(=O)N2CCCC2C(N)=O)sc1-c1ccnc(C(C)(C)C(F)(F)F)c1 (stereo unspecified)
viability, T/C (compound 0.0316 µM): 100% and 105% | viability, T/C (compound 0.1 µM): 91.2% and 91.5% | viability, T/C (compound 0.316 µM): 84.4% and 85.5% | viability, T/C (compound 1 µM): 80.7% and 83.9% | viability, T/C (compound 3.16 µM): 68.8% and 66.5% | viability, T/C (compound 10 µM): 55.6% and 54.2% | IC50 (curve of compound): > 10000 nM

Cn1cnc2c(F)c(Nc3ccc(Br)cc3Cl)c(C(=O)NOCCO)cc21
viability, T/C (compound 0.00949 µM): 46.8% and 40.8% | viability, T/C (compound 0.03 µM): 34.6% and 17.4% | viability, T/C (compound 0.0949 µM): 19.7% and 9.79% | viability, T/C (compound 0.3 µM): 21.9% and 7.35% | viability, T/C (compound 0.949 µM): 14.6% and 5.25% | viability, T/C (compound 3 µM): 14.1% and 2.56% | IC50 (curve of compound): < 9.49 nM

COC1CC2CCC(C)C(O)(O2)C(=O)C(=O)N2CCCCC2C(=O)OC(C(C)CC2CCC(OCCO)C(OC)C2)CC(=O)C(C)C=C(C)C(O)C(OC)C(=O)C(C)CC(C)C=CC=CC=C1C (stereo unspecified) + CC(C)NCC(C(=O)N1CCN(c2ncnc3c2C(C)CC3O)CC1)c1ccc(Cl)cc1
IC50 (curve of first compound, second compound 0.3 µM): 4.54 nM | IC50 (curve of first compound, second compound 0.949 µM): 0.725 nM | IC50 (curve of first compound, second compound 3 µM): < 0.316 nM | IC50 (curve of first compound, second compound 9.49 µM): < 0.316 nM | IC50 (curve of first compound, second compound 30 µM): < 0.316 nM | viability, T/C (second compound 0.3 µM, first compound 0.000316 µM): 72.6% | viability, T/C (second compound 0.3 µM, first compound 0.001 µM): 60.3% | viability, T/C (second compound 0.3 µM, first compound 0.00316 µM): 48.9% | viability, T/C (second compound 0.3 µM, first compound 0.01 µM): 49.6% | viability, T/C (second compound 0.3 µM, first compound 0.0316 µM): 45.1% | viability, T/C (second compound 0.3 µM, first compound 0.1 µM): 42.6% | viability, T/C (second compound 0.949 µM, first compound 0.000316 µM): 58.9% | viability, T/C (second compound 0.949 µM, first compound 0.001 µM): 47.5% | viability, T/C (second compound 0.949 µM, first compound 0.00316 µM): 39.2% | viability, T/C (second compound 0.949 µM, first compound 0.01 µM): 38.6% | viability, T/C (second compound 0.949 µM, first compound 0.0316 µM): 37.9% | viability, T/C (second compound 0.949 µM, first compound 0.1 µM): 36.8% | viability, T/C (second compound 3 µM, first compound 0.000316 µM): 45.5% | viability, T/C (second compound 3 µM, first compound 0.001 µM): 37.7% | viability, T/C (second compound 3 µM, first compound 0.00316 µM): 27.7% | viability, T/C (second compound 3 µM, first compound 0.01 µM): 27.3% | viability, T/C (second compound 3 µM, first compound 0.0316 µM): 30.2% | viability, T/C (second compound 3 µM, first compound 0.1 µM): 28% | viability, T/C (second compound 9.49 µM, first compound 0.000316 µM): 36.7% | viability, T/C (second compound 9.49 µM, first compound 0.001 µM): 30.7% | viability, T/C (second compound 9.49 µM, first compound 0.00316 µM): 23.2% | viability, T/C (second compound 9.49 µM, first compound 0.01 µM): 23.6% | viability, T/C (second compound 9.49 µM, first compound 0.0316 µM): 24% | viability, T/C (second compound 9.49 µM, first compound 0.1 µM): 21.6% | viability, T/C (second compound 30 µM, first compound 0.000316 µM): 30.3% | viability, T/C (second compound 30 µM, first compound 0.001 µM): 27.6% | viability, T/C (second compound 30 µM, first compound 0.00316 µM): 20.4% | viability, T/C (second compound 30 µM, first compound 0.01 µM): 19.1% | viability, T/C (second compound 30 µM, first compound 0.0316 µM): 22% | viability, T/C (second compound 30 µM, first compound 0.1 µM): 17.9%
